Experiments:
[1] = test system: monoclonal antibody to doxorubicin [4]-KLH (Immunogen Example 3b, Example 7); assay: Indirect competitive microtiter plate ELISA, cross-reactivity, monoclonal antibody from doxorubicin [4]-KLH immunogen (Example 3b); assay type: binding, mouse (BALB/c); conditions: relative to doxorubicin
Description: (§1) Two groups of ten Female BALB/c mice were immunized i.p. one with 100 μg/mouse of doxorubicin [4]-BTG immunogen prepared in Example 3a and the other with 100 μg/mouse of doxorubicin [4]-KLH immunogen prepared in Example 3b emulsified in Complete Freund's adjuvant. The mice were boosted once four weeks after the initial injection with 100 μg/mouse of the same immunogens emulsified in Incomplete Freund's Adjuvant. Ten days after the boost test bleeds from each mouse were obtained by orbital bleed. For monoclonal antibodies depending on the immunogen, age and rest period of the mouse starting four days before the fusion, the mice were injected i.p. with either 400 μg (3 days before fusion), 200 μg (2 days before fusion), and […] (1 day before fusion) of doxorubicin [4]-BTG immunogen prepared in Example 3a in PBS or 100 ug on each day of doxorubicin [4]-KLH immunogen prepared in Example 3b in PBS on three successive days. According to the protocol of Coligan et al. spleen cells were isolated from the selected mice and fused with 2×10^7 cells of the myeloma fusion partner cell line (SP2/0) using 50% polyethylene glycol 1500 [Coligan, J. E. et al., eds., Current Protocols in Immunology, 2.5.1-2.5.8, (1992), Wiley & Sons, NY.] To grow the fused cells into antibody producing colonies according to the method of Coligan et al. the fused cells were plated on 10 96-well plates in a conventional HAT (hypoxanthine, aminopterin and thymidine) selective growth medium such as DMEM/F12 (Dulbecco's Modified Eagle's Medium 1:1 with L-glutamine and HEPES) supplemented with 20% fetal bovine serum alternative, and containing 2% L-glutamine (100 mM) and 2% 50× HAT. Two weeks later, the hybridoma supernatant was assayed for the presence of anti-doxorubicin antibodies by ELISA as described in Example 10b. Positive wells were expanded and again screened by the same method. The positive clones were confirmed for doxorubicin binding by a competitive ELISA as described in Example 11 or subcloned directly. Clones positive by ELISA were subcloned once or twice by limiting dilution according to the method disclosed in Coligan, J. E. et al., eds., Current Protocols in Immunology, 2.5.8-2.5.17, (1992), Wiley & Sons, NY.
(§2) For the purpose of screening antibodies and measuring doxorubicin concentration by the Enzyme-Linked Immunosorbent Assay (ELISA) method polystyrene microtiter plates (Nunc MaxiSorp F8 Immunomodules) optimized for protein binding and containing 96 wells per plate were used. Each well was coated with doxorubicin [5]-BSA 3:1 conjugate (prepared as in Example 6b) by adding 300 μL of doxorubicin [1]-BSA conjugate at 10 μg/mL in 0.01 M MES, pH=6, and incubating for three hours at room temperature. The wells were washed with 0.005 M MES, pH 6 and then were blocked with 375 μL of 5% sucrose, 0.2% sodium caseinate solution for 30 minutes at room temperature. After removal of the post-coat solution the plates were dried at 37° C. overnight.
as §2, with “[1]-BSA 1:1” for “[5]-BSA 3:1”, “6c)” for “6b)”, “[5]-BSA” for “[1]-BSA”
For the purpose of screening antibodies and measuring doxorubicin concentration by the Enzyme-Linked Immunosorbent Assay (ELISA) method polystyrene microtiter plates (Nunc MaxiSorp F8 Immunomodules) optimized for protein binding and containing 96 wells per plate were used. […]

[2] = test system: antibodies to doxorubicin [5]-KLH (Immunogen Example 4b, Example 8); assay: Indirect competitive microtiter plate ELISA, cross-reactivity, antiserum from doxorubicin [5]-KLH immunogen (Example 4b); assay type: binding, mouse (BALB/c); conditions: relative to doxorubicin
Description: Mice were boosted once four weeks after the initial injection with 100 μg/mouse of the same immunogens emulsified in Incomplete Freund's Adjuvant. Ten and 28 days after the boost test bleeds from each mouse were obtained by orbital bleed. The anti-serum from the day 28 test bleeds contained doxorubicin antibodies evaluated in Examples 10a and 11. […] For the purpose of screening antibodies and measuring doxorubicin concentration by the Enzyme-Linked Immunosorbent Assay (ELISA) method polystyrene microtiter plates (Nunc MaxiSorp F8 Immunomodules) optimized for protein binding and containing 96 wells per plate were used. […] The wells were washed with 0.005 M MES, pH 6 and then were blocked with 375 μL of 5% sucrose, 0.2% sodium caseinate solution for 30 minutes at room temperature. After removal of the post-coat solution the plates were dried at 37° C. overnight. For the purpose of screening antibodies and measuring doxorubicin concentration by the Enzyme-Linked Immunosorbent Assay (ELISA) method polystyrene microtiter plates (Nunc MaxiSorp F8 Immunomodules) optimized for protein binding and containing 96 wells per plate were used. […] The wells were washed with 0.005 M MES, pH 6 and then were blocked with 375 μL of 5% sucrose, 0.2% sodium caseinate solution for 30 minutes at room temperature. After removal of the post-coat solution the plates were dried at 37° C. overnight. For the purpose of screening antibodies and measuring doxorubicin concentration by the Enzyme-Linked Immunosorbent Assay (ELISA) method polystyrene microtiter plates (Nunc MaxiSorp F8 Immunomodules) optimized for protein binding and containing 96 wells per plate were used. […] Following the incubation for color development, 50 μL of stop solution (1.5% sodium fluoride in di H2O) was added to each well to stop the color development and after 10 seconds of shaking the absorbance was determined at 650 nm with a 96-well plate reader. The amount of antibody in a well was proportional to the absorbance measured and was expressed as the dilution (titer) resulting in an absorbance of 1.5. Titers were determined by graphing log antibody dilution of the antibody measured (x-axis) vs. absorbance 650 nm (y-axis) and extrapolating the titer at an absorbance of 1.5. The titer determined the concentration (dilution) of antibody used in the indirect competitive Microtiter plate assay described in Example 11. Doxorubicin concentrations were measured by an indirect competitive Enzyme-Linked Immunosorbent Assay (ELISA) method This method for measuring doxorubicin concentrations was performed with the microtiter plates that were sensitized with doxorubicin [1]-BSA described in Examples 9b, c, d. […]

[3] = test system: antibody as produced in Examples 7 and 8 with immunogen of Examples 3a, 3b, 4a & b; assay: Competitive immunoassay cross-reactivity, antibodies of Examples 7 and 8 taken together; assay type: binding, mouse; conditions: antibodies of Examples 7 and 8, immunogens of Examples 3a
Description: The present invention relates to novel antibodies and monoclonal antibodies to doxorubicin. The antisera of the invention can be conveniently produced by immunizing host animals with the immunogens of this invention. Suitable host animals include rodents, such as, for example, mice, rats, rabbits, guinea pigs and the like, or higher mammals such as goats, sheep, horses and the like. […] Doxorubicin concentrations were measured by an indirect competitive Enzyme-Linked Immunosorbent Assay (ELISA) method This method for measuring doxorubicin concentrations was performed with the microtiter plates that were sensitized with doxorubicin [1]-BSA described in Examples 9b, c, d. […] The assay was performed by incubating 50 μL of the analytes to be measured with 50 μL of antibody (produced in Examples 7 and 8 with immunogens of Examples 3a, 3b, 4a and 4b) diluted to a titer determined in Example 10a. […] Following the incubation for color development, 50 μL of stop solution (1.5% sodium fluoride in di H2O) was added to each well to stop the color development and after 10 seconds of shaking the absorbance was determined at 650 nm with a 96-well plate reader. The amount of antibody in a well was proportional to the absorbance measured and inversely proportional to the amount of doxorubicin in the sample. […]

[4] = test system: monoclonal antibody to doxorubicin [4]-BTG (Immunogen Example 3a, Example 7); assay: Indirect competitive microtiter plate ELISA, cross-reactivity, monoclonal antibody from doxorubicin [4]-BTG immunogen (Example 3a); assay type: binding, mouse (BALB/c); conditions: relative to doxorubicin
Description: as §1
as §2, with “The wells were washed with 0.005 M MES, pH 6 and then were blocked with 375 μL of 5% sucrose, 0.2% sodium caseinate solution for 30 minutes at room temperature. After removal of the post-coat solution the plates were dried at 37° C. overnight.” left out

[5] = test system: antibodies to doxorubicin [5]-BTG (Immunogen Example 4a, Example 8); assay: Indirect competitive microtiter plate ELISA, cross-reactivity, antiserum from doxorubicin [5]-BTG immunogen (Example 4a); assay type: binding, mouse (BALB/c); conditions: relative to doxorubicin
Description: Mice were boosted once four weeks after the initial injection with 100 μg/mouse of the same immunogens emulsified in Incomplete Freund's Adjuvant. Ten and 28 days after the boost test bleeds from each mouse were obtained by orbital bleed. The anti-serum from the day 28 test bleeds contained doxorubicin antibodies evaluated in Examples 10a and 11. […] For the purpose of screening antibodies and measuring doxorubicin concentration by the Enzyme-Linked Immunosorbent Assay (ELISA) method polystyrene microtiter plates (Nunc MaxiSorp F8 Immunomodules) optimized for protein binding and containing 96 wells per plate were used. […] The wells were washed with 0.005 M MES, pH 6 and then were blocked with 375 μL of 5% sucrose, 0.2% sodium caseinate solution for 30 minutes at room temperature. After removal of the post-coat solution the plates were dried at 37° C. overnight. […] The wells were washed with 0.005 M MES, pH 6 and then were blocked with 375 μL of 5% sucrose, 0.2% sodium caseinate solution for 30 minutes at room temperature. After removal of the post-coat solution the plates were dried at 37° C. overnight. For the purpose of screening antibodies and measuring doxorubicin concentration by the Enzyme-Linked Immunosorbent Assay (ELISA) method polystyrene microtiter plates (Nunc MaxiSorp F8 Immunomodules) optimized for protein binding and containing 96 wells per plate were used. […] The wells were washed with 0.005 M MES, pH 6 and then were blocked with 375 μL of 5% sucrose, 0.2% sodium caseinate solution for 30 minutes at room temperature. After removal of the post-coat solution the plates were dried at 37° C. overnight. Antibodies were screened by Enzyme-Linked Immunosorbent Assay (ELISA) method. […] During this incubation antibody binds to the doxorubicin [5]-conjugate in the well. […] After an incubation of 10 minutes at room temperature with shaking, during which the goat anti-mouse antibody—HRP enzyme conjugate binds to doxorubicin antibodies in the wells, the plates were again washed three times to remove unbound goat anti-mouse antibody—HRP enzyme conjugate. To develop a measurable color in the wells washing was followed by the addition of 100 μL of TMB (TMB Liquid Substrate), a substrate for HRP, to develop color during a 10 minute incubation with shaking at room temperature. Following the incubation for color development, 50 μL of stop solution (1.5% sodium fluoride in di H2O) was added to each well to stop the color development and after 10 seconds of shaking the absorbance was determined at 650 nm with a 96-well plate reader. The amount of antibody in a well was proportional to the absorbance measured and was expressed as the dilution (titer) resulting in an absorbance of 1.5. Titers were determined by graphing log antibody dilution of the antibody measured (x-axis) vs. absorbance 650 nm (y-axis) and extrapolating the titer at an absorbance of 1.5. The titer determined the concentration (dilution) of antibody used in the indirect competitive Microtiter plate assay described in Example 11. Doxorubicin concentrations were measured by an indirect competitive Enzyme-Linked Immunosorbent Assay (ELISA) method This method for measuring doxorubicin concentrations was performed with the microtiter plates that were sensitized with doxorubicin [1]-BSA described in Examples 9b, c, d. […] During the 10 minute incubation (R.T., with shaking) there is a competition of antibody binding for the doxorubicin conjugate in the well and the analyte in solution. […]

[6] = plate sensitized as in Example 9b (doxorubicin [5]-BSA 3:1)
[7] = plate sensitized as in Example 9c (doxorubicin [5]-BSA 1:1)
[8] = plate sensitized as in Example 9d (doxorubicin [5]-BSA 1:1 thiol capped)

Row | Structure (SMILES) | % cross-reactivity [1, 6] [%] | % cross-reactivity [1, 7] [%] | % cross-reactivity [1, 8] [%] | % cross-reactivity [2, 6] [%] | percent cross-reactivity relative to doxorubicin [3] | % cross-reactivity [4, 6] [%] | % cross-reactivity [4, 7] [%] | % cross-reactivity [5, 6] [%] | % cross-reactivity [5, 7] [%] | % cross-reactivity [5, 8] [%] | % cross-reactivity [2, 7] [%] | % cross-reactivity [2, 8] [%]
1 | COc1cccc2c1C(=O)c1c(O)c3c(c(O)c1C2=O)C[C@@](O)(C(=O)CO)C[C@@H]3O [doxorubicin-aglycone, doxorubicin aglycone] | 1.5 | 3.9 | 3.0 | 8.6 | less than or equal to 10% | 10.6 | 12.9 | 5.7 | 10.0 | 8.8 | – | –
2 | COc1cccc2c1C(=O)c1c(O)c3c(c(O)c1C2=O)C[C@@](O)(C(=O)CO)C[C@@H]3O[C@H]1C[C@H](N)[C@H](O)[C@H](C)O1.Cl [doxorubicin] | 100 | 100 | 100 | 100 | – | 100 | 100 | 100 | 100 | 100 | 100 | 100

Reference: patent publication US8084586B2, “Doxorubicin immunoassay” (Saladax Biomedical, Inc., priority 2005, dated 2011)
